Measured values as given in patent US11872216B2, “Pharmaceutical formulation comprising cineole and amoxicillin” (priority 2016, dated 2024).
Blank lines part the entries; values can stand above or below the compound they belong to.

Experiments:
Format in all cases: cell-based
[1] = tested on: BSBL Escherichia coli P7847; assay: Microplate microdilution growth inhibition (PIC, MIC, FIC-index)
Method: (§1) The six strains tested in this study are purified clinical isolates identified in the bacteriology laboratory of the Hassan II university teaching hospital center (CHU, Fes, Morocco). Three of the six bacterial strains tested are strains of BSBL Escherichia coli (P956, P933 and P7847) and the other three bacterial strains tested are strains of BSBL Klebsiella pneumoniae (H1878, H2001 and H1893).
(§2) For each test performed, precultures of the bacterial strains (frozen beforehand at −20° C.) for 24 h at 37° C. were prepared. From these precultures, bacterial inocula containing 2×10^7 CFU (colony-forming units)/ml were prepared, adjusting the optical density to 540 nm.
(§3) Amoxicillin (AMX) and cineole were supplied by Sigma Aldrich (France). A stock solution of AMX (400 μg/ml) was prepared after dissolving 40 mg of antibiotic in 100 ml of sterile distilled water. From this stock solution, serial dilutions were performed. The cineole concentrations used were prepared by emulsifying pure cineole in 0.2% (v/v) of agar-agar according to the method described by Remmal A et al. (J. Essent. Oil. Res [Book], 1993, 5: pages 1179-1184).
(§4) The partial inhibitory concentrations (PIC) are the concentrations of antibacterial agents which inhibit the growth of a given percentage (90%, 75%, 50%, 40% . . . ) of the bacterial population studied. The PICs of AMX and cineole with respect to the six bacterial strains used were determined via a microplate microdilution technique based on the monitoring of the bacterial growth by measuring the optical density (Casey J. T. et al., J. Microbiol. Meth [Book], 2004, 58: pages 327-334; Patton T et al., J. Microbiol. Meth [Book], 2006, 64: pages 84-95).
(§5) 96-well U-shaped sterile microplates with a capacity of 200 μl were used. For each microplate, two control rows were prepared: • A row containing 200 μl of the MH liquid medium (sterility control and negative control). • A row containing 150 μl of the MH liquid medium and 50 μl of the bacterial inoculum at 2×10^7 CFU/ml (positive control).
(§6) For AMX and cineole, two rows were prepared containing 100 μl of MH liquid medium, 50 μl of the bacteria inoculum at 2×10^7 CFU/ml and 50 μl of decreasing concentrations of antimicrobial agents. The AMX concentrations used are: 50-25-12.5-6.25-3.1-1.6-0.8-0.4-0.20-0.10-0.05-0.025 μg/ml. The cineole concentrations used are: 100-50-25-12.5-6.25-3.1-1.6-0.8-0.4-0.20-0.10-0.05 μl/ml. The optical densities (OD) were determined at 540 nm using a microplate spectrophotometer (Versamax, Molecular Devices, USA). The OD was measured at time t=0 and after 22 hours of incubation at 30° C. The percentage of inhibition of the antimicrobial agents with respect to each of the six strains was calculated according to Casey J. T. et al. (J. Microbiol. Meth. [Book], 2004, 58: pages 327-334) according to the following formula:
(§7) With ODT0=OD of the test well at time t=0, ODT22=OD of the test well after 22 h of incubation, ODC0=OD of the positive control well at time t=0, ODC22=OD of the positive control well after 22 h of incubation.
(§8) After having determined the PICs of AMX and cineole alone, the antibacterial power of the combination of AMX and cineole was evaluated. The same technique of microplate microdilution was used. The AMX-cineole combinations were prepared in sterile tubes as follows: • AMX 50% PIC+cineole 40% PIC • AMX 50% PIC+cineole 30% PIC • AMX 50% PIC+cineole 20% PIC • AMX 25% PIC+cineole 40% PIC • AMX 25% PIC+cineole 30% PIC • AMX 25% PIC+cineole 20% PIC.
(§9) The fractional inhibitory concentration index (FIC-index) expressing the degree of synergism of the AMX-cineole combination was calculated according to the following formula (Odds F. C. et al., J. Antimicrob. Chemoth. [Book], 2003, 52: page 1).
(§10) The AMX-cineole combination is considered: • Synergistic when the FIC-index is ≤0.5 • Additive when 0.5<FIC-index <1 • Indifferent when 1<FIC-index <2 • Antagonistic when FIC-index >2. Results

[2] = tested on: BSBL Escherichia coli P933; assay: as above
Method: as §1, §2, §3, §4, §5, §6, §7, §8, §9, §10

[3] = tested on: BSBL Escherichia coli P956; assay: as above
Method: as §1, §2, §3, §4, §5, §6, §7, §8, §9, §10

[4] = tested on: BSBL Klebsiella pneumoniae H1878; assay: as above
Method: as §1, §2, §3, §4, §5, §6, §7, §8, §9, §10

[5] = tested on: BSBL Klebsiella pneumoniae H1893; assay: as above
Method: as §1, §2, §3, §4, §5, §6, §7, §8, §9, §10

[6] = tested on: BSBL Klebsiella pneumoniae H2001; assay: as above
Method: as §1, §2, §3, §4, §5, §6, §7, §8, §9, §10

[7] = tested on: three strains of BSBL Escherichia coli and three strains of BSBL Klebsiella pneumoniae; assay: Microplate microdilution, statements over all six strains tested
Method: as §1, §2, §3, §4
96-well U-shaped sterile microplates with a capacity of 200 μl were used. […]
as §6, with “The AMX concentrations used are: 50-25-12.5-6.25-3.1-1.6-0.8-0.4-0.20-0.10-0.05-0.025 μg/ml. The cineole concentrations used are: 100-50-25-12.5-6.25-3.1-1.6-0.8-0.4-0.20-0.10-0.05 μl/ml.” left out, “formula: […]” for “formula:”
After having determined the PICs of AMX and cineole alone, the antibacterial power of the combination of AMX and cineole was evaluated. […]
The fractional inhibitory concentration index (FIC-index) expressing the degree of synergism of the AMX-cineole combination was calculated according to the following formula (Odds F. C. et al., J. Antimicrob. Chemoth. [Book], 2003, 52: page 1). […]

[8] = cineole alone, Escherichia coli P7847
[9] = cineole alone, Escherichia coli P933
[10] = cineole alone, Escherichia coli P956
[11] = cineole alone, Klebsiella pneumoniae H1878
[12] = cineole alone, Klebsiella pneumoniae H1893
[13] = cineole alone, Klebsiella pneumoniae H2001

MIC ([1]; Escherichia coli, E. coli P7847, read-out: 100% MIC Alone (amoxicillin, first figure of the cell)): 50 µg/mL | MIC ([2]; Escherichia coli, E. coli P933, read-out: 100% MIC Alone (amoxicillin, first figure of the cell)): 50 µg/mL | MIC ([3]; Escherichia coli, E. coli P956, read-out: 100% MIC Alone (amoxicillin, first figure of the cell)): 50 µg/mL | MIC ([4]; Klebsiella pneumoniae, K. pneumoniae 111878, read-out: 100% MIC Alone (amoxicillin, first figure of the cell)): 50 µg/mL | IC50 ([4]; amoxicillin alone, Klebsiella pneumoniae H1878, read-out: 50% PIC): 1.6 ± 0.17 µg/mL | MIC ([5]; Klebsiella pneumoniae, K. pneumoniae 111893, read-out: 100% MIC Alone (amoxicillin, first figure of the cell)): 50 µg/mL | IC50 ([5]; amoxicillin alone, Klebsiella pneumoniae H1893, read-out: 50% PIC): 1.7 ± 0.09 µg/mL | MIC ([6]; Klebsiella pneumoniae, K. pneumoniae 112001, read-out: 100% MIC Alone (amoxicillin, first figure of the cell)): 50 µg/mL | IC50 ([6]; amoxicillin alone, Klebsiella pneumoniae H2001, read-out: 50% PIC): 1.3 ± 0.12 µg/mL | IC50 ([7]; span over all strains tested, read-out: 50% PIC of AMX): 1.1 to 1.7 µg/mL | MIC ([7]; three strains of E. coli and three strains of K. pneumoniae, read-out: minimum inhibitory concentrations (MIC, 100% inhibition) of AMX): ~50 µg/mL
Compound: CC1(C)S[C@@H]2[C@H](NC(=O)[C@H](N)c3ccc(O)cc3)C(=O)N2[C@H]1C(=O)O [amoxicillin, Amoxicillin]
25% PIC ([1]; amoxicillin alone, Escherichia coli P7847): 0.8 ± 0.17 µg/mL | IC50 ([1]; amoxicillin alone, Escherichia coli P7847, read-out: 50% PIC): 1.5 ± 0.13 µg/mL | 25% PIC ([2]; amoxicillin alone, Escherichia coli P933): 0.5 ± 0.10 µg/mL | IC50 ([2]; amoxicillin alone, Escherichia coli P933, read-out: 50% PIC): 1.3 ± 0.24 µg/mL | 25% PIC ([3]; amoxicillin alone, Escherichia coli P956): 0.7 ± 0.14 µg/mL | IC50 ([3]; amoxicillin alone, Escherichia coli P956, read-out: 50% PIC): 1.1 ± 0.25 µg/mL | 25% PIC ([4]; amoxicillin alone, Klebsiella pneumoniae H1878): 0.9 ± 0.09 µg/mL | 25% PIC ([5]; amoxicillin alone, Klebsiella pneumoniae H1893): 0.8 ± 0.12 µg/mL | 25% PIC ([6]; amoxicillin alone, Klebsiella pneumoniae H2001): 0.6 ± 0.14 µg/mL

100% MIC Alone (cineole, second figure of the cell) ([1]; E. coli P7847): 100 μl/ml | 100% MIC Alone (cineole, second figure of the cell) ([2]; E. coli P933): 100 μl/ml | 100% MIC Alone (cineole, second figure of the cell) ([3]; E. coli P956): 100 μl/ml | 100% MIC Alone (cineole, second figure of the cell) ([4]; K. pneumoniae 111878): 100 μl/ml | 100% MIC Alone (cineole, second figure of the cell) ([5]; K. pneumoniae 111893): 100 μl/ml | 100% MIC Alone (cineole, second figure of the cell) ([6]; K. pneumoniae 112001): 100 μl/ml | MICs of cineole ([7]; three strains of E. coli and three strains of K. pneumoniae): ~100 μl/ml
Compound: CC12CCC(CC1)C(C)(C)O2 [cineole, 1,8-cineole]
20% PIC [1, 8]: 1.2 ± 0.11 μl/ml | 30% PIC [1, 8]: 2.7 ± 0.12 μl/ml | 40% PIC [1, 8]: 6.5 ± 0.10 μl/ml | 20% PIC [2, 9]: 1.3 ± 0.24 μl/ml | 30% PIC [2, 9]: 2.3 ± 0.09 μl/ml | 40% PIC [2, 9]: 6.8 ± 0.14 μl/ml | 20% PIC [3, 10]: 1.2 ± 0.16 μl/ml | 30% PIC [3, 10]: 2.6 ± 0.12 μl/ml | 40% PIC [3, 10]: 6.2 ± 0.20 μl/ml | 20% PIC [4, 11]: 0.4 ± 0.12 μl/ml | 30% PIC [4, 11]: 2.9 ± 0.12 μl/ml | 40% PIC [4, 11]: 7.1 ± 0.12 μl/ml | 20% PIC [5, 12]: 0.6 ± 0.12 μl/ml | 30% PIC [5, 12]: 2.7 ± 0.09 μl/ml | 40% PIC [5, 12]: 6.8 ± 0.09 μl/ml | 20% PIC [6, 13]: 0.7 ± 0.09 μl/ml | 30% PIC [6, 13]: 3.1 ± 0.10 μl/ml | 40% PIC [6, 13]: 6.9 ± 0.12 μl/ml | 40% PIC of cineole ([7]; span over all strains tested): 6.2-7.1 μl/ml
